The results in this text go back to US20060142308A1, “Synergistic combination comprising roflumilast and formoterol” (Atlanta Pharma AG, priority 2002, published 2006).

The test has as its system ovalbumin (OVA)-sensitized and OVA-challenged Brown Norway rats. In words: Late inflammatory airway reaction in the ovalbumin-sensitized/-challenged Brown-Norway rat (BAL fluid eosinophils, total cells, protein). It counts as in vivo. The conditions noted are these: for Mean % Inhibition of Eosinophils: BAL fluid 48 h after OVA challenge; for Mean % Inhibition of Eosinophils / Mean % Inhibition of Protein: drug 1 h before challenge, p.o., Roflumilast 1.0, Formoterol 3.0, combination 1.0 + 3.0 μmol/kg; for Mean % Inhibition of Protein: cell-free BAL fluid 48 h after OVA challenge. As for the experimental part: Late Inflammatory Airway Reaction in the Ovalbumin-Sensitized/-Challenged Brown-Norway Rat
Anti-inflammatory activity of Roflumilast and formoterol was determined in ovalbumin (OVA)-sensitized and OVA-challenged Brown Norway rats. Sensitization was done by simultaneous injection of Bordetella pertussis suspension i.p. and OVA/AHG suspension s.c. on day 1, 14 and 21. 28 days after start of sensitization, conscious Brown-Norway rats were challenged by inhalation of the aerosolized OVA solution for 1 h (˜20 ml/h). Non-challenged, only sensitized animals were used as baseline control. The drugs (thoroughly mixed with lactose) or the placebo control (lactose) were administered intratracheally (i.t.) as dry powders 1 h before OVA-challenge. 48 h later, OVA-challenged or non-challenged animals were anaesthetized and bronchoalveolar lavage (BAL) was performed using 3×4 ml BAL buffer per animal. The number of total cells and eosinophils in the BAL fluid, and the concentration of protein in the cell-free BAL fluid were determined. Drug-induced relative changes were calculated and statistically analyzed by the Jonckheere Terpstra test.

For the compound `COc1ccc(CC(C)NCC(O)c2ccc(O)c(NC=O)c2)cc1` (stereo not drawn) [Formoterol], the “Mean % Inhibition of Eosinophils” value is 35% and the “Mean % Inhibition of Protein” value was found to be 46%. In addition, the “effects on total cell and eosinophil influx into alveolar space and protein levels in BAL fluid” value (3 μmol/kg i.t., data failed to reach significance) is on record as “exhibited inhibitory effects”.

Regarding `O=C(Nc1c(Cl)cncc1Cl)c1ccc(OC(F)F)c(OCC2CC2)c1` [Roflumilast], the “Mean % Inhibition of Eosinophils” value was 0% and the “Mean % Inhibition of Protein” value was 15%. For the same compound, the “effects on cell infiltration and protein accumulation” value (0.3 μmol/kg i.t.) was “did not show any significant effects”.
